Measurements from patent EP2251010A1, “Use of thiabendazole and derivatives thereof for the therapy of neurological conditions” (Sygnis Bioscience GmbH & Co. KG, priority 2009, dated 2010).

Key:
primary cortical neurons = assay: In vitro anti-apoptosis assay (Caspase-Glo 3/7) on primary cortical neurons with staurosporine; format: cell-based, Wistar rat; details: sham 11 %
Source text: (§1) Neuroprotection is attainable via the inhibition of apoptosis of affected neurons. The anti-apoptotic effect of thiabendazole and its derivatives can be assayed in vitro by measuring the caspase-3 and caspase-7 activities. These members of the cysteine aspartic acid-specific protease (caspase) family play key effector roles in apoptosis in mammalian cells. Cortical neurons have to be isolated and subsequently cultivated in a suitable culture medium. […] Parallel approaches with staurosporine alone and sham treatment of the cells serve as […]. The assay allows evaluating whether the test compound can compensate either completely or partially for the apoptotic effect of staurosporine.
(§2) The neuroprotective effect of compounds can be assayed in vitro by measuring caspase-3 and caspase-7 activities. These members of the cysteine aspartic acid-specific protease (caspase) family play a key effector role in apoptosis in mammalian cells.
These cells were isolated from twelve to fourteen cortices dissected from Wistar rat embryos on E18. The tissue was dissociated using 0,25 mg/ml trypsin, 0,1 mg/ml EDTA (Sigma), 100 µg/ml DNase (Roche Diagnostics Corp.) in HBSS. The digestion was stopped using 3 parts MEM-medium containing 10 % fetal calf serum, 0,45 % D-(+)glucose, 1 mM sodium-pyruvate and 0,25 µM glutamate. The cells were singularized by 10 strokes with a burnished Pasteur-pipette. After centrifugation, the cell pellet was dissolved in 10 ml medium and plated at a density of 30000 cells per well on a 96-well plate coated with poly-L-lysine for caspase-assays. […] Incubation with staurosporine (SP; 0,5 µM) alone served as positive control and incubation with vehicle (sham) served as negative control.

neural stem cells = assay: In vitro differentiation assay on adult neuronal stem cells (beta-III-tubulin promoter dual luciferase reporter); format: cell-based, Wistar rats; details: final concentrations of 1 µM and 10 µM, Fig. 4
Source text: The neuroregenerative effect of the compounds according to the present invention can be assayed in vitro by measuring their stimulation of the differentiation of neuronal stem cells. Therefore, adult neuronal stem cells have to be isolated and subsequently cultivated in a suitable culture medium. After several passages in vitro the stem cells have to be co-transfected with a DNA construct coding for two discriminable reporter proteins one of them under the control of a constitutive promoter and the other under the control of a beta-III-tubulin promoter. The beta-III-tubulin promoter is induced during the process of neuronal stem cell differentiation; therefore the reporter protein under the control of this promoter serves as a marker for the stem cell differentiation in such an in vitro dual reporter assay (Schneider et al., J Clin Investigation 2005; 115:2083-2098). The person skilled in the art knows several suitable constitutive promoters such as the SV40-promoter, the TK-promoter, or the CMV-promoter. As discriminable reporter proteins for such a dual reporter assay one can use discriminable luciferases such as firefly luciferase and Renilla luciferase. The transfected cells have to be incubated with the test compound and with positive and negative controls for normalization and background correction. As a positive control compound one can use retinoic acid (Guan et al., Cell Tissue Res. 2001; 305:171-176; Jacobs et al., Proc. Natl. Acad. Sci. USA 2006; 103:3902-3907), a suitable negative control is the sham treatment of the cells. The neroregenerative activity of the test compound is determined as the ratio of the signal of the beta-III-tubulin promoter controlled reporter versus the signal of the constitutively expressed reporter and is expressed as fold from the control. This assay is suitable to assess the neuroregenerative activity of thiabendazole and derivatives thereof, but also can be used to screen for other potential neuroregenerative compounds. Preferably, such a screening can be used to test compounds which are already known to be suitable as a medicament in terms of its toxicology, bioavailability, solubility, stability etc.
In vitro differentiation assay on adult neuronal stem cells with thiabendazole Neural stem cells were isolated from the subventricular zone of 4 week-old male Wistar rats as described (Maurer et al, Proteome Sci. 2003; 1:4). Cells were cultivated in Neurobasal medium (Invitrogen) supplemented with B27 (Invitrogen), 2mM L-glutamine, 100units/ml penicillin, 100units/ml streptomycin, 20ng/ml […] (EGF), 20ng/ml fibroblast growth factor-2 (FGF-2), and 2µg/ml heparin. Once a week the neural stem cells were passaged and experiments were performed after 4 weeks in vitro. For DNA transfection, the cells were dissociated and plated on poly-L-ornithin/laminin-coated 96-well plates at a density of 50.000 cells/well. Cotransfection with the pGL3-p-βIII-tubulin vector (100ng/well) and the pRL SV40 vector (100ng/well) was carried out according to the FuGene6 Transfection protocol (Roche). The pRL SV40 vector (Promega) served as an internal control vector.
To amplify the class III β-tubulin gene promoter (fragment -450 - +54), rat genomic DNA was used as a template for PCR (Dennis et al., Gene 2002;294:269-277). The amplified fragment was inserted into the Mlu I/Xho I site of the pGL3-Basic firefly luciferase reporter vector (Promega) to generate the pGL3-p-βIII-tubulin experimental vector.
After overnight incubation, the plate was decanted and given in 8-fold replicates fresh medium containing thiabendazole (Sigma) or vehicle. As a positive control for in vitro differentiation, stem cells were treated by adding 1 µM retinoic acid (Sigma) to the medium missing the mitogens.
After 48hrs, the cells were harvested to prepare the cellular extracts for luciferase assay following the directions of the manufacturer (Promega). […]

SH-SY5Y cells [1] = assay: In vitro anti-apoptosis assay (Caspase-Glo 3/7) on SH-SY5Y cells with staurosporine; format: cell-based, human; details: SH-SY5Y cells, compound 1 µM plus staurosporine 0,5 µM; sham 26 %, Fig. 5
SH-SY5Y neuronal cells = assay: In vitro viability assay (constitutive Renilla luciferase reporter); format: cell-based, human; details: final concentration of 1 µM and of 10 µM, Fig. 7
Method: The viability assay allows for further assessment of test compounds regarding their effect on cells such as neurons. Therefore, a stably transfected cell line (e.g. SH-SY5Y cells) with a reporter construct (e.g. a luciferase construct) has to be incubated with the test compound and in parallel with positive and negative controls (e.g. staurosporine and sham, respectively). Subsequently, the signal generated by the reporter construct serves as a readout for the viability of the cells in the presence of the test compound. The assay enables the evaluation of potential neurotoxic effects of the test compound itself.
The effect of a compound on the viability of neuronal cells can be assayed in vitro by measuring the survival of neuronal cells transfected with a reporter construct under a constitutive promoter. SH-SY5Y neuronal cells stably transfected with a Renilla luciferase construct under the SV40 promoter were seeded in 96-well plates at a density of 2,5 x 10^4 cells per well. Following overnight incubation the cells were stimulated with medium containing thiabendazole or vehicle. Staurosporine (0,5 µM) served as positive control. The Renilla luciferase activity was measured 5 h later using a luminometer (Berthold Technologies, Mithras LB 940). Thiabendazole was tested in a range from 0,8 µM to 50 µM final concentration.
Analogously, thiabendazole (A; Sigma) and various derivatives thereof (2-(1,3-thiazol-5-yl)-benzimidazole (B; ChemBridge Corporation), 4-(benzimidazol-2-yl)-1,3-thiazol-2-amine (C; ChemBridge Corporation), 2-(2-thienyl)-benzimidazole (D; ChemBridge Corporation), or 2-(1,3-thiazol-4-yl)-benzimidazole-5-ol (E; Witega GmbH), Fig. 8) have been analysed for their effect on the viability of neuronal cells. The compounds were tested in a final concentration of 1 µM and of 10 µM.

SH-SY5Y cells [2] = assay: In vitro anti-apoptosis assay (Caspase-Glo 3/7) on SH-SY5Y cells with staurosporine; format: cell-based, human
Source text: as §1, §2
The human neuroblastoma cell-line SH-SY5Y (American Type Culture Collection) maintained in DMEM with high glucose supplemented with 20% FBS was used for the apoptosis assay. Alternatively one can analyse the apoptosis of primary cortical neurons which can be isolated from E18 rats and subsequently cultivated in suitable culture medium. 2,5 x 10^4 SH-SY5Y cells were seeded in 96-well plates and stimulated 24 h later with thiabendazole or vehicle in the presence of the apoptosis inducing compound staurosporine (0,1 µM, Calbiochem). After 5h incubation at 37 °C, caspase-Glo 3/7 reagent (Promega) containing luciferase and luminogenic substrate was added to the cells. The cleavage of the substrate by caspase-3 and caspase-7 was detected 30 min later using a luminometer (Berthold Technologies, Mithras LB 940). The Luminescence which is proportional to the amount of caspase activity serves as a measure for the apoptosis of the treated neurons. Thiabendazole was tested in a range from 0,8 µM to 100 µM final concentration.
Incubation with staurosporine (SP; 0,5 µM) alone served as positive control and incubation with vehicle (sham) served as negative control.

[3] = compound 1 µM plus staurosporine 0,5 µM, Fig. 6

c1ccc2[nH]c(-c3cncs3)nc2c1 [B, 2-(1,3-thiazol-5-yl)-benzimidazole]
degree of apoptosis relative to the staurosporine control (primary cortical neurons; [3]): 55%
differentiation of neural stem cells to neurons (relative induction of the class III β-tubulin gene promoter controlled luciferase signal) (neural stem cells): significantly stimulate the differentiation of neural stem cells to neurons
degree of apoptosis relative to the staurosporine control (SH-SY5Y cells [1]): 65%

Nc1nc(-c2nc3ccccc3[nH]2)cs1 [C, 4-(benzimidazol-2-yl)-1,3-thiazol-2-amine]
degree of apoptosis relative to the staurosporine control (primary cortical neurons; [3]): 52%
differentiation of neural stem cells to neurons (relative induction of the class III β-tubulin gene promoter controlled luciferase signal) (neural stem cells): significantly stimulate the differentiation of neural stem cells to neurons
viability of neuronal cells (Renilla luciferase activity) (SH-SY5Y neuronal cells): did not show any significantly reduced viability
degree of apoptosis relative to the staurosporine control (SH-SY5Y cells [1]): 46%

c1csc(-c2nc3ccccc3[nH]2)c1 [D, 2-(2-thienyl)-benzimidazole]
degree of apoptosis relative to the staurosporine control (primary cortical neurons; [3]): 49%
differentiation of neural stem cells to neurons (relative induction of the class III β-tubulin gene promoter controlled luciferase signal) (neural stem cells): significantly stimulate the differentiation of neural stem cells to neurons
degree of apoptosis relative to the staurosporine control (SH-SY5Y cells [1]): 65%

Oc1ccc2nc(-c3cscn3)[nH]c2c1 [E, 2-(1,3-thiazol-4-yl)-benzimidazole-5-ol]
degree of apoptosis relative to the staurosporine control (primary cortical neurons; [3]): 60%
differentiation of neural stem cells to neurons (relative induction of the class III β-tubulin gene promoter controlled luciferase signal) (neural stem cells): significantly stimulate the differentiation of neural stem cells to neurons
degree of apoptosis relative to the staurosporine control (SH-SY5Y cells [1]): 83%

CN[C@@H]1C[C@H]2O[C@@](C)([C@@H]1OC)n1c3ccccc3c3c4c(c5c6ccccc6n2c5c31)C(=O)NC4 [staurosporine]
degree of apoptosis relative to the staurosporine control (primary cortical neurons; staurosporine 0,5 µM alone (positive control)): 100%
staurosporine induced apoptosis (caspase-3 and caspase-7 activity) (SH-SY5Y cells [2]; 0,1 µM staurosporine alone (reference, set to 100 %), sham 10 %): 100%
degree of apoptosis relative to the staurosporine control (SH-SY5Y cells [2]; SH-SY5Y cells, staurosporine 0,5 µM alone (positive control), sham 26 %): 100%
